pIC50: −log10 of the molar value.

The target in the experiment is T1, Nav1.7 (or SCN9A) channel (Homo sapiens, UniProt Q15858).
T1 construct: expressed in transfected cells
T1 sequence (Q15858 whole entry): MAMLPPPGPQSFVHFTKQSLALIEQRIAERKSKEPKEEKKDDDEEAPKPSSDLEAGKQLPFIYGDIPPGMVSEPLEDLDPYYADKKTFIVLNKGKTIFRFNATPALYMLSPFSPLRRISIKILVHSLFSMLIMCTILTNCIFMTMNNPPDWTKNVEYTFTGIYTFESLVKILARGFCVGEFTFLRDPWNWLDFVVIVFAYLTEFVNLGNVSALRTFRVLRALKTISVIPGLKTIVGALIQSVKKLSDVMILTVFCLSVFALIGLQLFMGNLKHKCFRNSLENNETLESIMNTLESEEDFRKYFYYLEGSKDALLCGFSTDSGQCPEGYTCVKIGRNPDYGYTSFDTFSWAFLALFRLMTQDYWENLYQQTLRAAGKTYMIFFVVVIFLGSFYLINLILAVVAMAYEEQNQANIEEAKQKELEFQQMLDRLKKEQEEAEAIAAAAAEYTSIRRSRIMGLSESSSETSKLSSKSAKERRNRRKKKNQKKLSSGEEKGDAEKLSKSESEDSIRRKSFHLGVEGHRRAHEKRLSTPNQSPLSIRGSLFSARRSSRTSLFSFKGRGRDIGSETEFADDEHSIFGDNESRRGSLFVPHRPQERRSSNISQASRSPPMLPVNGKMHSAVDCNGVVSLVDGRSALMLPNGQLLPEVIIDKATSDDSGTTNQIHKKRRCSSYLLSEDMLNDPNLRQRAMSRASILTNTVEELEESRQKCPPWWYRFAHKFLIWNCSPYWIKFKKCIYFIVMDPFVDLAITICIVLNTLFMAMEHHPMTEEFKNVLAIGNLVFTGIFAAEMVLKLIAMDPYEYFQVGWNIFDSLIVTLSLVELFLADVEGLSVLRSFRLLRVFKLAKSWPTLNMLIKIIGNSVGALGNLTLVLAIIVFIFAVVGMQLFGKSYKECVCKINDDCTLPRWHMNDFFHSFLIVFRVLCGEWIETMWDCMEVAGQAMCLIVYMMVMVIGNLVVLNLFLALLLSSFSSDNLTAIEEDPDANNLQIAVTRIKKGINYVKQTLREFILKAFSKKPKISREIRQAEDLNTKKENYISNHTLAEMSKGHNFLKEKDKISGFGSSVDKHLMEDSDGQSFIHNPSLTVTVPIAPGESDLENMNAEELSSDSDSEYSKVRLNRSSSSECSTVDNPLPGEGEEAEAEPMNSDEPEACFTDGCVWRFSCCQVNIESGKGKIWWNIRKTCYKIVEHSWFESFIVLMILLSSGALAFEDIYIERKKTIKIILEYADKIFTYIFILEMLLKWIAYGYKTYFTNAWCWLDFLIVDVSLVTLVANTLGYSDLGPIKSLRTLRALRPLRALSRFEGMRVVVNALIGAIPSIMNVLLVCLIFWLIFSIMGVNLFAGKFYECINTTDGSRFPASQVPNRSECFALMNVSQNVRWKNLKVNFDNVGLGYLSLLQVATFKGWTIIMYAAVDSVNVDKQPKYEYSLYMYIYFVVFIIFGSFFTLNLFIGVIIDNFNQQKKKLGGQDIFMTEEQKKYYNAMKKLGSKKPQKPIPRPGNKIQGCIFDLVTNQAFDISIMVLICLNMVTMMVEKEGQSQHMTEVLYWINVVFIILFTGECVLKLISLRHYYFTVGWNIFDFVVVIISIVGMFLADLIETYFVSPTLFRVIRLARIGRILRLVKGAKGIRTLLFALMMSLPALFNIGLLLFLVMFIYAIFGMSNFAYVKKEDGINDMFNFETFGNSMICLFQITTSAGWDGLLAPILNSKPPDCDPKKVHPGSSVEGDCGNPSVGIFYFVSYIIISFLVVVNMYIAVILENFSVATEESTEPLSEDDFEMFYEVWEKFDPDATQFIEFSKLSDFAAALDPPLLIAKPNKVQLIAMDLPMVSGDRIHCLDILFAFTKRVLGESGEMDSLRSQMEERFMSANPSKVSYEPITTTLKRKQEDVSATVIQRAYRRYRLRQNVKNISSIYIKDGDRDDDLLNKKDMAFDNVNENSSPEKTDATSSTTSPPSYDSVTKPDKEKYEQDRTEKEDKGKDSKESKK
As to the kind of experiment: Nav1.7 PatchXpress 7000 automated electrophysiology assay (HEK cells stably expressing hSCN9A). It is filed as cell-based. Conditions: voltage-clamped at V1/2 of inactivation, read-out: Nav1.7 EIC50. Here is the method: The ability of the compounds of formula (I) to block the Nav1.7 (or SCN9A) channel was measured using the assays described below.
Human Embryonic Kidney (HEK) cells were transfected with an hSCN9A construct using lipofectamine reagent (Invitrogen), using standard techniques. Cells stably expressing the hSCN9A constructs were identified by their resistance to G-418 (400 μg/ml). Clones were screened for expression using the whole-cell voltage-clamp technique.
HEK cells stably transfected with hSCN9A were maintained in DMEM medium supplemented with 10% heat-inactivated fetal bovine serum and 400 μg/ml G-418 in an incubator at 37° C. with a humidified atmosphere of 10% CO2. For HTS, cells were harvested from flasks by trypsinization and replated in an appropriate multi-well plate (typically 96 or 384 wells/plate) such that confluence would be achieved within 24 hours of plating. For electrophysiological studies, cells were removed from the culture flask by brief trypsinization and re-plated at low density onto glass cover slips. Cells were typically used for electrophysiological experiments within 24 to 72 hours after plating.
Cover slips containing HEK cells expressing hSCN9A were placed in a bath on the stage of an inverted microscope and perfused (approximately 1 ml/minutes) with extracellular solution of the following composition: 138 mM NaCl, 2 mM CaCl2, 5.4 mM KCl, 1 mM MgCl2, 10 mM glucose, and 10 mM HEPES, pH 7.4, with NaOH. […] The osmolarity of the extracellular and intracellular solutions was 300 mOsm/kg and 295 mOsm/kg, respectively. All recordings were made at room temperature (22-24° C.) using AXOPATCH 200B amplifiers and PCLAMP software (Axon Instruments, Burlingame, Calif.).
HEK cells stably transfected with hSCN9A were viewed under Hoffman contrast optics and placed in front of an array of flow pipes emitting either control or compound-containing extracellular solutions. All compounds were dissolved in dimethyl sulfoxide to make 10 mM stock solutions, which were then diluted into extracellular solution to attain the final concentrations desired. […] The voltage-dependence of inactivation was determined by applying a series of depolarizing prepulses (8 sec long in 10 mV increments) from a negative holding potential. The voltage was then immediately stepped to 0 mV to assess the magnitude of the sodium current. Currents elicited at 0 mV were plotted as a function of prepulse potential to allow estimation of the voltage at which 50% of the channels were inactivated (midpoint of inactivation or V1/2). Compounds were tested for their ability to inhibit hSCN9A sodium channels by activating the channel with a 20 msec voltage step to 0 mV following an 8 second conditioning prepulse to the empirically determined V1/2. Compound effect (% inhibition) was determined by difference in current amplitude before and after application of test compounds. For ease of comparison, “estimated IC-50” (EIC50) values were calculated from single point electrophysiology data by the following equation, (tested concentration, uM)×(100-% inhibition/% inhibition). Inhibition values <20% and >80% were excluded from the calculation.
Electrophysiological assays were conducted with PatchXpress 7000 hardware and associated software (Molecular Devices Corp). All assay buffers and solutions were identical to those used in conventional whole-cell voltage clamp experiments described above. hSCN9A cells were grown as above to 50%-80% confluency and harvested by trypsinization. Trypsinized cells were washed and resuspended in extracellular buffer at a concentration of 1×10^6 cells/ml. The onboard liquid handling facility of the PatchXpress was used for dispensing cells and application of test compounds. Determination of the voltage midpoint of inactivation was as described for conventional whole-cell recordings. Cells were then voltage-clamped to the empirically determined V1/2 and current was activated by a 20 msec voltage step to 0 mV. […]
Turning to `CS(=O)(=O)NC(=O)c1cc(F)c(Oc2ccc(Cl)c(OC(F)(F)F)c2)cc1F` [Example 56, 4-(4-chloro-3-(trifluoromethoxy)phenoxy)-2,5-difluoro-N-(methylsulfonyl)benzamide], the pIC50 was 6.70.

For `O=C(NS(=O)(=O)c1ccccc1)c1cc(F)c(Oc2ccc(Cl)c(C(F)(F)F)c2)cc1F` [Example 57, 4-[4-chloro-3-(trifluoromethyl)phenoxy]-2,5-difluoro-N-(phenylsulfonyl)benzamide], the pIC50 is 6.04.

For the compound `CCC(C)S(=O)(=O)NC(=O)c1cc(F)c(Oc2ccc(Cl)c(C(F)(F)F)c2)cc1F` (stereo not shown) [Example 58, N-(sec-butylsulfonyl)-4-[4-chloro-3-(trifluoromethyl)phenoxy]-2,5-difluorobenzamide], the pIC50 is 6.37.

As to `COc1cc(C(=O)NS(C)(=O)=O)ccc1Oc1ccc(Cl)c(C(F)(F)F)c1` [Example 59, 4-[4-chloro-3-(trifluoromethyl)phenoxy]-3-methoxy-N-(methylsulfonyl)benzamide], the pIC50 was 5.40.

As to `COc1cc(Oc2ccc(Cl)c(C(F)(F)F)c2)c(F)cc1C(=O)NS(C)(=O)=O` [Example 60, 4-[4-chloro-3-(trifluoromethyl)phenoxy]-5-fluoro-2-methoxy-N-(methylsulfonyl)benzamide], the pIC50 is 4.48.

Take `COc1cc(Cl)ccc1Oc1cc(OC)c(C(=O)NS(C)(=O)=O)cc1F` [Example 61, 4-(4-chloro-2-methoxyphenoxy)-5-fluoro-2-methoxy-N-(methylsulfonyl)benzamide]: the pIC50 was less than 5.00.

On to `CS(=O)(=O)NC(=O)c1ccc(Oc2ccc(Cl)c(C(F)(F)F)c2)c(C#N)c1` [Example 62, 4-[4-chloro-3-(trifluoromethyl)phenoxy]-3-cyano-N-(methylsulfonyl)benzamide], for which the pIC50 is 6.05.

In the case of `COc1cc(Cl)ccc1Oc1ccc(C(=O)NS(C)(=O)=O)cc1C#N` [Example 63, 4-(4-chloro-2-methoxyphenoxy)-3-cyano-N-(methylsulfonyl)benzamide], the pIC50 is less than 5.52.

Take `COc1cc(Cl)ccc1Oc1ccc(C(=O)NS(C)(=O)=O)c(F)c1` [Example 64, 4-(4-chloro-2-methoxyphenoxy)-2-fluoro-N-(methylsulfonyl)benzamide]: the pIC50 was less than 5.52.

Turning to `COc1cc(Cl)ccc1Oc1ccc(C(=O)NS(C)(=O)=O)cc1F` [Example 65, 4-(4-chloro-2-methoxyphenoxy)-3-fluoro-N-(methylsulfonyl)benzamide], the pIC50 is less than 6.00.

Take `COc1ccc(Cl)cc1Oc1cc(F)c(C(=O)NS(C)(=O)=O)cc1F` [Example 67, 4-(5-chloro-2-methoxyphenoxy)-2,5-difluoro-N-(methylsulfonyl)benzamide]: the pIC50 was 5.30.

For the compound `COc1cc(F)ccc1Oc1cc(F)c(C(=O)NS(C)(=O)=O)cc1F` [Example 69, 2,5-difluoro-4-(4-fluoro-2-methoxyphenoxy)-N-(methylsulfonyl)benzamide], the pIC50 was 5.21.

For `COc1cc(Cl)c(Cl)cc1Oc1cc(F)c(C(=O)NS(C)(=O)=O)cc1F` [Example 70, 4-(4,5-dichloro-2-methoxyphenoxy)-2,5-difluoro-N-(methylsulfonyl)benzamide], the pIC50 was 5.55.

Consider `COc1cc(OC(F)(F)F)ccc1Oc1cc(F)c(C(=O)NS(C)(=O)=O)cc1F` [Example 72, 2,5-difluoro-4-[2-methoxy-4-(trifluoromethoxy)phenoxy]-N-(methylsulfonyl)benzamide], for which the pIC50 is less than 6.00.

On to `CS(=O)(=O)NC(=O)c1cc(F)c(Oc2ccc(Cl)cc2OC(F)(F)F)cc1F` [Example 73, 4-[4-chloro-2-(trifluoromethoxy)phenoxy]-2,5-difluoro-N-(methylsulfonyl)benzamide], for which the pIC50 was 6.15.

With `COc1cc(C(F)(F)F)ccc1Oc1cc(F)c(C(=O)NS(C)(=O)=O)cc1F` [Example 74, 2,5-difluoro-4-(2-methoxy-4-(trifluoromethyl)phenoxy)-N-(methylsulfonyl)benzamide], the pIC50 was less than 6.00.

Take `CS(=O)(=O)NC(=O)c1cc(F)c(Oc2ccc(Cl)c(C(F)(F)F)c2)cc1F` [Example 75, 4-(4-chloro-3-(trifluoromethyl)phenoxy)-2,5-difluoro-N-(methylsulfonyl)benzamide]: the pIC50 was 6.35.

In the case of `CC(C)S(=O)(=O)NC(=O)c1ccc(Oc2ccc(Cl)c(C(F)(F)F)c2)cc1` [Example 76, 4-(4-chloro-3-(trifluoromethyl)phenoxy)-N-(isopropylsulfonyl)benzamide], the pIC50 is 6.07.

As for `CS(=O)(=O)NC(=O)c1cc(F)c(Oc2ccc(Cl)c(C(F)(F)F)c2)cc1Cl` [Example 77, 2-chloro-4-(4-chloro-3-(trifluoromethyl)phenoxy)-5-fluoro-N-(methylsulfonyl)benzamide], the pIC50 is 6.28.

Take `COc1c(C(=O)NS(C)(=O)=O)ccc(Oc2ccc(Cl)c(C(F)(F)F)c2)c1F` [Example 78, 4-(4-chloro-3-(trifluoromethyl)phenoxy)-3-fluoro-2-methoxy-N-(methylsulfonyl)benzamide]: the pIC50 is 5.38.

Turning to `Cn1nccc1-c1cc(Cl)ccc1Oc1cc(F)c(C(=O)NS(C)(=O)=O)cc1Cl` [Example 80, 5-chloro-4-[4-chloro-2-(1-methyl-1H-pyrazol-5-yl)phenoxy]-2-fluoro-N-(methylsulfonyl)benzamide], the pIC50 was less than 5.52.

In the case of `Cc1cc(C(=O)NS(C)(=O)=O)ccc1Oc1ccc(Cl)c(Cl)c1` [Example 81, 4-(3,4-dichlorophenoxy)-3-methyl-N-(methylsulfonyl)benzamide], the pIC50 is 6.64.

On to `CS(=O)(=O)NC(=O)c1ccc(Oc2ccc(Cl)c(Cl)c2)c(Cl)c1` [Example 82, 3-chloro-4-(3,4-dichlorophenoxy)-N-(methylsulfonyl)benzamide], for which the pIC50 is 6.85.

Turning to `Cn1nccc1-c1cc(Cl)ccc1Oc1ccc(C(=O)NS(C)(=O)=O)cc1` [Example 83, 4-(4-chloro-2-(1-methyl-1H-pyrazol-5-yl)phenoxy)-N-(methylsulfonyl)benzamide], the pIC50 is less than 5.52.

For `COc1cc(C)ccc1Oc1cc(F)c(C(=O)NS(C)(=O)=O)cc1F` [Example 85, 2,5-difluoro-4-(2-methoxy-4-methylphenoxy)-N-(methylsulfonyl)benzamide], the pIC50 was less than 6.00.

As for `COc1ccc(C)cc1Oc1cc(F)c(C(=O)NS(C)(=O)=O)cc1F` [Example 86, 2,5-difluoro-4-(2-methoxy-5-methylphenoxy)-N-(methylsulfonyl)benzamide], the pIC50 was less than 6.00.

Consider `CS(=O)(=O)NC(=O)c1cc(F)c(Oc2cccc(Cl)c2Cl)cc1F` [Example 87, 4-(2,3-dichlorophenoxy)-2,5-difluoro-N-(methylsulfonyl)benzamide], for which the pIC50 is 5.16.

On to `COc1ccc(C#N)cc1Oc1cc(F)c(C(=O)NS(C)(=O)=O)cc1F` [Example 88, 4-(5-cyano-2-methoxyphenoxy)-2,5-difluoro-N-(methylsulfonyl)benzamide], for which the pIC50 was less than 5.52.

`CS(=O)(=O)NC(=O)c1cc(F)c(Oc2cc(F)ccc2F)cc1F` [Example 89, 4-(2,5-difluorophenoxy)-2,5-difluoro-N-(methylsulfonyl)benzamide]: the pIC50 was less than 5.52.

In the case of `CC(C)Oc1ccccc1Oc1cc(F)c(C(=O)NS(C)(=O)=O)cc1F` [Example 90, 2,5-difluoro-4-(2-isopropoxyphenoxy)-N-(methylsulfonyl)benzamide], the pIC50 was less than 6.52.

Regarding `CS(=O)(=O)NC(=O)c1cc(F)c(Oc2c(F)cccc2Cl)cc1F` [Example 91, 4-(2-chloro-6-fluorophenoxy)-2,5-difluoro-N-(methylsulfonyl)benzamide], the pIC50 is less than 5.52.

Values taken from patent US8685977B2, “Chemical compounds” (Pfizer Limited, priority 2010, dated 2014).
